We go through three compounds from US10583115B2, “Modulators of 14-3-3 functionality and uses thereof” (University of South Australia, priority 2014, dated 2020).

The target in data set [1] is T1, recombinant 14-3-3ζ (Homo sapiens, UniProt P63104).
T1 construct: 0.5 μg of purified recombinant 14-3-3
T1 sequence (P63104 1-245): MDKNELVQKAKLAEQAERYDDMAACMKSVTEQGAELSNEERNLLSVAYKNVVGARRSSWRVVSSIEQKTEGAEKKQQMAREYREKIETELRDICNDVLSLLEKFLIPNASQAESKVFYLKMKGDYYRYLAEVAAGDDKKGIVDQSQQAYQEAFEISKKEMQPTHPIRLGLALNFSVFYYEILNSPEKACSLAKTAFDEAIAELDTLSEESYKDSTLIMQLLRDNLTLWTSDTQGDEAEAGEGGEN
As to the kind of experiment: 14-3-3 phosphorylation assay (PKA, in vitro). It is filed as biochemical. As to the method:
(§1) Substrate 14-3-3 (0.5 μg of purified recombinant 14-3-3) was added to 15 μl reaction mixture comprising 0.2 U of the PKA catalytic subunit, in the presence or absence of compounds (delivered in 0.1% v/v ethanol) in PKA reaction buffer (10 mM Tris-HCl pH 7.4, 15 mM MgCl2, 3 mM DTT) containing 25 μM ATP and 0.3 μCi [^32P] 7-ATP). Reactions were incubated at 37° C. for 15 min. After incubation, reactions were separated on 12.5% SDS-PAGE, coomassie stained and 14-3-3 phosphorylation analysed by autoradiography.

Data set [2] concerns recombinant 14-3-3ζ. As to the kind of experiment: 14-3-3 phosphorylation assay (PKA, in vitro). It counts as biochemical. The following applies: S58A versus Wt recombinant 14-3-3. As to the method:
as §1

The subject of another data set is Jurkat cells. The data set can be described thus: Jurkat apoptosis assays (TMRE, caspase 3, Annexin V, viability by flow cytometry). It is filed as cell-based. As to the method: (§2) Jurkat cells were routinely set up in apoptosis assays at 2×10^5/ml in RPMI with 0.5% FBS. After treatment, cells were stained either with 200 nM TMRE, 5 μl/ml NucView™ (Biotium), or Annexin V-FITC (Roche) for 15 mins prior to analysis by flow cytometry. Forward- and side-scatter properties were used to exclude debris and a ‘viable’ gate corresponding to the intact, PI negative cell population was used for fluorescence analysis. For A549, cells at 90% confluency were treated with RB compounds for 48 hrs in DMEM with 0.5% FBS. After treatment, cells were released with trypsin and then stained with NucView™ prior to analysis by flow cytometry.
In general terms: In flow cytometry, cells or beads pass a laser one at a time.

Data set [3] has as its system Jurkat cells over-expressing Bcl-2. As to the kind of experiment: Apoptosis assays in Jurkat cells over-expressing Bcl-2. It is filed as cell-based. The following applies: 5 μM, 20 hours. As to the method:
Jurkat cells were obtained from the ATCC and A549 cell lines from ECACC. Jurkat cells were routinely cultured in RPMI with 10% FBS and A549 cells in DMEM with 10% FBS at 37° C. with 5% CO2 Jurkat Bcl-2 cells were generated by lentiviral transduction using a third generation lentiviral construct, as described previously (10) containing a Bcl-2α-IRES-IL2Rα encoding cassette. Transduced cells were FACS sorted for expression of IL2Rα using anti-CD25-PE (BD Pharmingen #555433) to enrich for Bcl-2 over-expressing cells and protein expression was further confirmed by immunoblotting with anti-Bcl-2 antibody (#610538; BD Transduction Laboratories, data not shown).
as §2

For data set [4] the following is noted: reported value; cited from earlier work.
The next data set has as its system A549 xenograft. The data set can be described thus: A549 xenograft study. It is filed as in vivo, BALB/c nude mice. As to the method: All experimental procedures involving animals were conducted in accordance with the NHMRC Australian Code for the Care and Use of Animals for Scientific Purposes and with approval by the institutional animal ethics committee. BALB/c nude mice (Nu/Nu, female, 5-6 weeks old) were purchased from the Animal Resources Centre (Perth, Wash.) and maintained under pathogen-free conditions. A549 cells (5×106) in 100 μl PBS were injected subcutaneously into the flanks of the mice and the resulting tumour were measured using digital callipers. The tumour volume was calculated using the following formula: Volume=(larger diameter)×(small diameter)2/2. Once the tumours had reached 100 mm3, mice were divided into groups of 9 and each group administered either RB-012 in saline, FTY720 in saline or saline alone by intraperitoneal injection daily. Initially RB-12 and FTY720 were administered at 2 mg/kg for two days and then the dose was increased to 5 mg/kg for two weeks after which RB-012 was increased to 10 mg/kg but FTY720 maintained at 5 mg/kg. During this dosing regime tumours were monitored twice a week. Differences between samples were analysed using 2 way Anova and statistical significance was accepted at P<0.05.
To assess the effect of RB-012 on human lung cancer growth in vivo, A549 cells were implanted subcutaneously on the flanks of Balb/C nude mice and tumours allowed to develop until they had reached a volume of 100 mm^3. RB-012 or saline was then administered daily to assess the effect on tumour growth. Initially, to reduce the cramping and encourage tolerance, 2 mg/kg RB-012 was administered for two days and then the dose was increased to 5 mg/kg daily for two weeks. Tumour volume was monitored twice a week and after two weeks of treatment mice administered RB-012 had tumours that were 20% smaller than mice receiving saline. […] The tumours on the RB-012 treated mice continued to grow more slowly and after the third week were 30% smaller than those of saline-treated mice (P<0.05). […] Therefore we were unable to increase FTY720 dosing to match RB-012.

Data set [5] deals with A549 cells. The data set can be described thus: A549 cell viability by MTS assay. It counts as cell-based, human. The following applies: 48 hrs treatment. As to the method: A549 cells (2500/well) were plated in 96 well trays in DMEM with 0.5% FBS and cultured at 37° C. with 5% CO2 overnight. The following day RB compounds were added and cells incubated for a further 48 hours prior to removal of the medium and replacement with MTS reagent diluted 1:6 in Dulbecco's PBS. The cells were incubated at 37° C. for a further 4 hours and the conversion of MTS to the coloured formazan compound determined by measurement of absorbance at 490 nm.
For orientation: Tetrazolium dyes change colour on reduction, which living cells bring about.

For data set [6], the system named is A549 cells. As to the kind of experiment: A549 caspase-3 activation (NucView, flow cytometry). It is filed as cell-based, human. The following applies: 48 hrs treatment. As to the method: as §2
For data set [7], the system named is incisional wounds of dorsal skin. As to the kind of experiment: Incisional wound healing model. It is filed as in vivo, mice. As to the method:
A murine model of wound healing was utilised. In this model, 2×1 cm full thickness wounds were created in the dorsal skin. Wound healing was monitored using cohorts of mice humanely killed at 3, 5, 7 and 14 days post-wounding. Re-epithelialization was quantified histologically, by measuring the distance between epithelial margins sectioned in the transverse plane (Ansell D. M. et al. (2014) Wound Rep Reg 22: 281-287).
Incisional wounding was carried out as we have previously detailed (Lees et al. (2013) The Journal of investigative dermatology 133, 1330-1339). Briefly, two full-thickness 1 cm incisions were created on the dorsal skin of 12 week old female mice and allowed to heal. RB-11 (10 μg per mouse), 4-hydroxytamoxifen (50 μg per mouse) or vehicle was applied in a total volume of 20 μl to the edge of each wound using a micropipette and allowed to absorb into the skin. At the appropriate time point (2, 5, 7, 14 and 21 days) following incisional wounding, mice were humanely killed and tissues harvested. From each mouse, one wound was completed excised and fixed in 4% formalin overnight at 4° C. Following fixation, the wound was carefully bisected at the middle across the wound, processed and embedded in paraffin for histological and immunofluorescence analysis. Wound widths were measured on scanned images of H&E stained sections using NDPView slide scanning and image quantification software. The remaining wound was bisected across the wound, snap-frozen and processed for gene expression analysis.
14-3-3ζ-deficient and wild-type mice were subjected to the incisional wounding protocol followed by treatment with vehicle or RB-11 (5× daily topical treatments of 11.5 μg). […] Slides were optically scanned using a Nanozoomer slide scanner (Hamamatsu, Japan) and the wound gap measured using Imagescope software (Leica Biosystems, Germany). Values were plotted on a box and whisker plot and statistical significant assessed using the Mann-Whitney test together with Dunnett's post hoc test.

The next data set relates to WT dermal fibroblasts. As to the kind of experiment: Collagen remodeling assay and cell morphology, wild-type dermal fibroblasts. It is filed as cell-based, mice. The following applies: 10 μM. As to the method:
(§3) Rat-tail tendon collagen was prepared by extraction with 0.5 M acetic acid to a concentration of ˜2 mg/ml. 8×10^4 cells/ml WT or 14-3-3ζ KO dermal fibroblasts (labeled with either eGFP or mCherry) were embedded in this three-dimensional collagen 1 matrix and incubated in DMEM with 10% FCS and 10 mM L-Glutamine at 37° C. and 5% CO2. Detached polymerized matrix (2.5 ml) was allowed to contract for 11 days. During contraction, matrices were either left untreated or incubated with 10 μM RB-11. Media was changed on day 1 and on day 6. To calculate contraction rates and obtain information on cell morphology matrices were imaged every second day in phase contrast on a Leica DMIL LED inverted microscope with either a 4×/NA0.10 HI PLAN or a 10×/NA0.22 HI PLAN I air objective.
(§4) Measuring the mean diameter of three matrices and normalizing the diameter to day 1 determined contraction rates. Cell morphology was described by manually counting the number of cell protrusions/cell and the number of blebbing cells.
To determine the circularity of cells images were processed in ImageJ (NIH) according to following routine. Images were converted to 8 Bit images and cropped to an image size equivalent to […]. Grey values were thresholded to select cells. The ‘analyze particles’ function was used to determine circularity of cells. Circularity values range from 0 to 1 with ‘0’ representing rod-shaped cells and ‘1’ representing perfectly circular cells.
10^6 14-3-3ζ-deficient or wild-type dermal fibroblasts were embedded in 2 mg/mL % rat tail collagen plugs made with or without 10 μM RB-11. The plugs were maintained in DMEM containing 10% foetal bovine serum in a humidified incubator at 37° C. Collagen plugs were photographed on days 2, 6 and 12 and the area of the image occupied by the collage plug measured.

The test system of data set [8] is 14-3-3ζ KO dermal fibroblasts. As to the kind of experiment: Collagen remodeling assay and cell morphology, 14-3-3ζ KO dermal fibroblasts. The following applies: 10 μM. It counts as cell-based, mice. As to the method: as §3, §4
To determine the circularity of cells images were processed in ImageJ (NIH) according to following routine. […]
10^6 14-3-3ζ-deficient or wild-type dermal fibroblasts were embedded in 2 mg/mL % rat tail collagen plugs made with or without 10 μM RB-11. […] Collagen plugs were photographed on days 2, 6 and 12 and the area of the image occupied by the collage plug measured.

Entries after “also recorded” stand apart in the source; their conditions may differ.

With `CCCCCCCCCCCCCCCC[N+](C)(C)C.[Br-]` [CTAB, cetyltrimethylammonium bromide], on recombinant 14-3-3ζ [1] (dose-response study), the “concentration above which 14-3-3 phosphorylation plateaus” value is on record as “above 25 μM” and the “concentrations able to induce 14-3-3 phosphorylation” value is “low micromolar concentrations”. In addition, the “concentration above which phosphorylation of 14-3-3 increased dramatically” value at recombinant 14-3-3ζ [1] (potentially non-specific protein denaturation) is listed as “above 75 μM”. Moreover, the “rendering 14-3-3 phosphorylatable (phosphorylation of 14-3-3 by PKA in vitro)” value on recombinant 14-3-3ζ [1] (recombinant 14-3-3 and PKA catalytic subunit) was “dose-dependent increase in 14-3-3 phosphorylation”. Also, the “phosphorylation site of 14-3-3ζ revealed” value with recombinant 14-3-3ζ [2] is reported as “Ser58”. Besides, the caspase-3 activation entry with Jurkat cells (5 μM, 20 hours) is “induce caspase-3 activation”. In addition, the “cell death in Bcl-2 over-expressing cells” value in [3] is listed as “protected from CTAB-induced cell death”. Further, the critical micelle concentration in data set [4] is 0.92 mM.

Turning to `CCCCCCCCc1ccc(CCC(N)(CO)CO)cc1` [FTY720], the “tumour size versus saline” value in the data set on A549 xenograft (5 mg/kg daily i.p.) is “no reduction in tumour size; also recorded: did not elicit a reduction in tumour growth”. Besides, the “adverse effects at 10 mg/kg” value with A549 xenograft (10 mg/kg) is reported as “severe cramping with cardiac arrhythmia, with fatality in some cases”. The “tolerability at 10 mg/kg” value in the data set on A549 xenograft (mouse, in vivo) was “not tolerated”.

Broadly, the IC50 is the concentration that inhibits the measured activity by half. Lower therefore signals greater potency. Turning to `CCCCCCCCc1ccc(CC[N+]2(C)CCCC2)cc1` [RB-011], the “ED50 for apoptosis induction, in words” value in the data set with Jurkat cells was “low micromolar range”. In the data set on Jurkat cells (5 μM, 24 hours), the “Annexin V presentation” value is “Annexin V presentation” and the cell viability result was “loss of viability”. For the same compound, the “apoptosis as determined by caspase-3 activation” value in the data set on Jurkat cells (5 μM, within 5 hours) is listed as “readily able to activate apoptosis”. Also, the EC50 with Jurkat cells (Homo sapiens, Jurkat, 5 h, read-out: ED50 for apoptosis induction (initial activation of caspase-3)) worked out at 2 µM. The “cell viability / growth and survival (MTS), in words” value with A549 cells [5] is reported as “inhibited”. In addition, the IC50 in the data set on A549 cells [5] (Homo sapiens, A549) turned out to be 7 µM. Also, the caspase-3 activation result in the data set on A549 cells [6] is “induce caspase activation”. For the same compound, in data set [7] (WT mice, topical 10 μg [25 nmol] once daily for 7 days), the rate of re-epithelialization result was “increased the rate of re-epithelialization”. Besides, the “collagen production around wound margins (SHG)” value in data set [7] (WT mice, topical 10 μg once daily for 7 days) is “elevated collagen production”. In data set [7] (wild-type mice, 5× daily topical treatments of 11.5 μg, day 5 following wounding), the “wound healing (wound width)” value is recorded as “hastened wound healing”. For the same compound, in the data set on WT dermal fibroblasts, the “cell morphology by circularity analysis” value was “rounded morphology” and the “cell morphology in 3D collagen organotypic matrices (live-cell imaging)” value is “contracted morphology”. Further, in the data set on WT dermal fibroblasts (listed as RB-11), the “collagen remodeling ability (contraction of collagen plug/matrix)” value was “unable to remodel the collagen plug; also recorded: significantly reduced collagen remodeling ability”. Besides, in data set [8], the “cell morphology by circularity analysis” value was “no further change in the morphology”. For the same compound, the “ability to remodel a collagen plug” value in [8] (compared to wild type fibroblasts) is reported as “reduced ability to remodel a collagen plug”.
